The test concerns the target T1, human PAH with the R408W mutation (Homo sapiens, UniProt P00439, R408W).
T1 construct: expressed in transfected cells
T1 sequence (P00439 1-452 R408W): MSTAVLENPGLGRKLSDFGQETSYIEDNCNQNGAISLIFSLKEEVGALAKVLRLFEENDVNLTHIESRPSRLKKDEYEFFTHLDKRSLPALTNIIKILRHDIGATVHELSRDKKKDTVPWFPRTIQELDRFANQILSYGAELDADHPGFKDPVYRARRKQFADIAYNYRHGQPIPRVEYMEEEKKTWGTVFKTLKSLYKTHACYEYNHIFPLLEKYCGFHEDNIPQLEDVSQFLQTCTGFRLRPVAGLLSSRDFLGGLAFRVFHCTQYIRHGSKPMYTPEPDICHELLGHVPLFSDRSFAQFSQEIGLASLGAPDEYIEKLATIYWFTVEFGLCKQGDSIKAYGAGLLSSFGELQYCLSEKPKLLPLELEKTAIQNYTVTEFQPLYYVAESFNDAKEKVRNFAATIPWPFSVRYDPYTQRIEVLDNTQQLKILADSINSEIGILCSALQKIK
Nature of the test: Cell Based Phenylalanine Flux Assay. As to conditions: A375 cells expressing human R408W PAH, 13C-Tyrosine by LC-MS, average where tested multiple times, read-out: AC50.

The values that follow come from patent publication US20250171438A1 (Agios Pharmaceuticals, Inc., priority 2022, published 2025).

Molecules are shown by their SMILES. Like-named read-outs stand apart in the source and are kept apart here. A value given as a limit tells only on which side of the number the result lay.

What is called AC50 is the midpoint of the concentration-response curve, whichever way the signal moves.

Consider `O=C(c1cnn2cc(Br)ccc12)N1CCc2[nH]cnc2C1c1nc2ccc(Cl)cc2[nH]1` (stereo not shown) [listing 1 of 2 here], for which, for the setting “24 hrs with compound”, the AC50 lay in the range of 1000 to 5000 nM.
On the same count and under the same terms, in the case of `Cc1nnc(C(=O)N2CCc3[nH]cnc3C2c2nc3ccccc3[nH]2)s1` (stereo not shown) it was 1000 to 5000 nM.
`Cc1nnc(C(=O)N2CCc3[nH]cnc3[C@@H]2c2nc3c(F)cccc3s2)s1` [Example 1251, (R)-(4-(4-fluorobenzo[d]thiazol-2-yl)-6,7-dihydro-1H-imidazo[4,5-c]pyridin-5(4H)-yl)(5-methyl-1,3,4-thiadiazol-2-yl)methanone]: the AC50 (24 hrs compound incubation) was greater than 5000 nM.
Regarding `O=C(c1nnc(-c2ncccc2F)o1)N1CCc2[nH]cnc2[C@@H]1c1nc2ccccc2s1` [Example 1709, (R)-(4-(benzo[d]thiazol-2-yl)-6,7-dihydro-1H-imidazo[4,5-c]pyridin-5(4H)-yl)(5-(3-fluoropyridin-2-yl)-1,3,4-oxadiazol-2-yl)methanone], the AC50 (24 hrs compound incubation) is less than 500 nM.
Regarding `Cc1ccn2ncc(C(=O)N3CCc4[nH]cnc4[C@@H]3c3nc4ccccc4s3)c2c1` [Example 1126, (R)-(4-(benzo[d]thiazol-2-yl)-6,7-dihydro-1H-imidazo[4,5-c]pyridin-5(4H)-yl)(5-methylpyrazolo[1,5-a]pyridin-3-yl)methanone], the AC50 (24 hrs compound incubation) was in the range of 1000 to 5000 nM.
Take `O=C(c1oc(-c2ccccn2)nc1C1CC1)N1CCc2[nH]cnc2[C@H]1c1nc2ccccc2[nH]1` [Example 995, (S)-(4-(1H-benzo[d]imidazol-2-yl)-6,7-dihydro-1H-imidazo[4,5-c]pyridin-5(4H)-yl)(4-cyclopropyl-2-(pyridin-2-yl)oxazol-5-yl)methanone]: the AC50 (24 hrs compound incubation) lay within 500 to 1000 nM.
Regarding `O=C(c1oc(-c2ccccn2)nc1C1CC1)N1CCCc2[nH]cnc2C1c1nc2ccccc2[nH]1` (stereo not shown) [listing 1 of 2 here], the AC50 (24 hrs with compound) is greater than 5000 nM.
Regarding `O=C(c1nnc(-c2ccc(F)cn2)o1)N1CCc2[nH]cnc2[C@@H]1c1nc2ccccc2s1` [Example 1366, (R)-(4-(benzo[d]thiazol-2-yl)-6,7-dihydro-1H-imidazo[4,5-c]pyridin-5(4H)-yl)(5-(5-fluoropyridin-2-yl)-1,3,4-oxadiazol-2-yl)methanone], the AC50 (24 hrs compound incubation) lay within 1000 to 5000 nM.
The same measure, in the same setting: in the case of `CC(O)c1nc(Br)c(C(=O)N2CCc3[nH]cnc3[C@@H]2c2nc3c(F)cccc3s2)o1` (single isomer, unassigned) [Example 2059] it was 1000 to 5000 nM; in that of `O=C(c1ncn2ccccc12)N1CCc2[nH]cnc2[C@H]1c1nc2cccc(F)c2s1` [Example 1268, (S)-(4-(7-fluorobenzo[d]thiazol-2-yl)-6,7-dihydro-1H-imidazo[4,5-c]pyridin-5(4H)-yl)(imidazo[1,5-a]pyridin-1-yl)methanone], less than 500 nM; in that of `[2H][C@@]1(c2nc3ccccc3s2)c2nc[nH]c2CCN1C(=O)c1ocnc1C` [Example 2159, [(4S)-4-(1,3-benzothiazol-2-yl)-4-deuterio-6,7-dihydro-1H-imidazo[4,5-c]pyridin-5-yl]-(4-methyloxazol-5-yl)methanone], less than 500 nM.
In the case of `Cn1cc(-c2ccc3c(C(=O)N4CCc5[nH]cnc5[C@@H]4c4nc5ccccc5s4)cnn3c2)cn1` [Example 1214, (R)-(4-(benzo[d]thiazol-2-yl)-6,7-dihydro-1H-imidazo[4,5-c]pyridin-5(4H)-yl)(6-(1-methyl-1H-pyrazol-4-yl)pyrazolo[1,5-a]pyridin-3-yl)methanone], under “24 hrs compound incubation”, the AC50 fell in the range of 1000 to 5000 nM.
`Cn1nc(C(F)(F)F)nc1C(=O)N1CCc2[nH]cnc2C1c1nc2ccccc2s1` (stereo not shown): the AC50 (24 hrs with compound) was 1000 to 5000 nM.
As for `O=C(c1ccnn1C(F)F)N1CCc2[nH]cnc2[C@H]1c1nc2ccccc2s1` [Example 1817], the AC50 (24 hrs compound incubation) was less than 500 nM.
As for `O=C(CCc1nccs1)N1CCc2nc[nH]c2[C@@H]1c1nc2ccccc2s1` [Example 1004, (R)-1-(4-(benzo[d]thiazol-2-yl)-6,7-dihydro-3H-imidazo[4,5-c]pyridin-5(4H)-yl)-3-(thiazol-2-yl)propan-1-one], the AC50 (24 hrs compound incubation) is 1000 to 5000 nM.
In the case of `Cc1nc(C(C)(C)O)oc1C(=O)N1CC(C)c2[nH]cnc2C1c1nc2c(F)cccc2s1` (stereo not shown), the concentration at half-maximal activity (AC50) (24 hrs with compound) fell in the range of 1000 to 5000 nM.
As for `O=C(c1ocnc1-c1ccccc1)N1CCc2[nH]cnc2[C@H]1c1nc2c(F)cccc2s1` [Example 2177, (S)-(4-(4-fluorobenzo[d]thiazol-2-yl)-6,7-dihydro-1H-imidazo[4,5-c]pyridin-5(4H)-yl)(4-phenyloxazol-5-yl)methanone], the AC50 (24 hrs compound incubation) lay within 500 to 1000 nM.
Turning to `Cn1nc(C2CCC2)cc1C(=O)N1CCc2[nH]cnc2[C@H]1c1nc2c(F)cccc2s1` [Example 1853], under “24 hrs compound incubation”, the AC50 is 1000 to 5000 nM.
On the same count and under the same terms, in the case of `O=C(c1cnn2ccc(Br)cc12)N1CCc2[nH]cnc2[C@@H]1c1nc2ccc(F)cc2s1` [Example 1138, (R)-(5-bromopyrazolo[1,5-a]pyridin-3-yl)(4-(6-fluorobenzo[d]thiazol-2-yl)-6,7-dihydro-1H-imidazo[4,5-c]pyridin-5(4H)-yl)methanone] it was 1000 to 5000 nM.
Take `O=C(c1ccnn1C(F)(F)F)N1CCc2[nH]cnc2[C@H]1c1nc2c(F)cccc2s1` [Example 2099, (S)-(4-(4-fluorobenzo[d]thiazol-2-yl)-6,7-dihydro-1H-imidazo[4,5-c]pyridin-5(4H)-yl)(1-(trifluoromethyl)-1H-pyrazol-5-yl)methanone]: where the note is “24 hrs compound incubation”, the AC50 was less than 500 nM.
As to `O=C(c1oc(-c2ccccn2)nc1C1CC1)N1CCCc2[nH]cnc2C1c1nc2ccccc2[nH]1` (stereo not shown) [listing 2 of 2 here], where the note is “24 hrs with compound”, the half-maximal activity concentration (AC50) lay in the range of 1000 to 5000 nM.
As to `Cn1cc(-c2nnc(C(=O)N3CCc4[nH]cnc4[C@H]3c3nc4ccccc4s3)o2)cn1` [Example 1462], the AC50 (24 hrs compound incubation) is 1000 to 5000 nM.
On the same count and under the same terms, in the case of `COc1ccn2ncc(C(=O)N3CCc4[nH]cnc4[C@H]3c3nc4ccccc4s3)c2c1` [Example 1083] it was less than 500 nM; in that of `O=C(c1cnn2cc(Cl)ccc12)N1CCc2[nH]cnc2[C@H]1c1nc2ccccc2s1` [Example 1063], less than 500 nM.
As to `c1ccc2[nH]c(C3c4nc[nH]c4CCN3CCCc3nccs3)nc2c1` (stereo not shown), the AC50 (24 hrs with compound) is 1000 to 5000 nM.
With `O=C(c1cnn(CC(F)F)c1Cl)N1CCc2[nH]cnc2[C@H]1c1nc2c(F)cccc2s1` [Example 2017, (S)-(5-chloro-1-(2,2-difluoroethyl)-1H-pyrazol-4-yl)(4-(4-fluorobenzo[d]thiazol-2-yl)-6,7-dihydro-1H-imidazo[4,5-c]pyridin-5(4H)-yl)methanone], the AC50 (24 hrs compound incubation) is less than 500 nM.
For `Cc1nc(C2CC2)oc1C(=O)N1CCc2[nH]cnc2[C@H]1c1nc2c(F)cccc2s1` [Example 1527], the AC50 (24 hrs compound incubation) is less than 500 nM.
The same measure, in the same setting: then `O=C(CC1(O)CCC1)N1CCc2[nH]cnc2[C@H]1c1nc2ccccc2s1` [Example 1657], with less than 500 nM.
Turning to `Cn1nc(-c2ccccn2)cc1C(=O)N1CCc2[nH]cnc2C1c1nc2c(F)cccc2s1` (stereo not shown), for the setting “24 hrs with compound”, the AC50 lay within 1000 to 5000 nM.
For `O=C(c1cnn2cc(Br)ccc12)N1CCc2[nH]cnc2C1c1nc2ccc(Cl)cc2[nH]1` (stereo not shown) [listing 2 of 2 here], under “24 hrs with compound”, the AC50 was greater than 5000 nM.
As to `O=C(c1cnc(NC2CC2)s1)N1CCc2[nH]cnc2[C@H]1c1nc2ccccc2s1` [Example 1183], the AC50 (24 hrs compound incubation) is less than 500 nM.
`CC1CN(C(=O)c2nnc(C(C)(C)O)o2)C(c2nc3ccccc3s2)c2nc[nH]c21` (stereo not shown): the AC50 (24 hrs with compound) is greater than 5000 nM.
`O=C(CCc1nccs1)N1CCc2[nH]cnc2[C@@H]1c1ncc(Br)s1` [Example 2149, (R)-1-(4-(5-bromothiazol-2-yl)-6,7-dihydro-1H-imidazo[4,5-c]pyridin-5(4H)-yl)-3-(thiazol-2-yl)propan-1-one]: where the note is “24 hrs compound incubation”, the half-maximal activity concentration (AC50) was greater than 5000 nM.
In the case of `O=C(c1ccnn1CC(F)(F)F)N1CCc2[nH]cnc2[C@H]1c1nc2c(F)cccc2s1` [Example 1737, (S)-(4-(4-fluorobenzo[d]thiazol-2-yl)-6,7-dihydro-1H-imidazo[4,5-c]pyridin-5(4H)-yl)(1-(2,2,2-trifluoroethyl)-1H-pyrazol-5-yl)methanone], the AC50 (24 hrs compound incubation) was less than 500 nM.
For the compound `Cc1nnc(CCC(=O)N2CCc3[nH]cnc3C2c2nc3ccc(Cl)cc3[nH]2)s1` (stereo not shown), the half-maximal activity concentration (AC50) (24 hrs with compound) was 1000 to 5000 nM.
Turning to `O=C(c1ocnc1-c1ccccc1)N1CCc2[nH]cnc2[C@@H]1c1nc2ccccc2s1` [Example 1441, (R)-(4-(benzo[d]thiazol-2-yl)-6,7-dihydro-1H-imidazo[4,5-c]pyridin-5(4H)-yl)(4-phenyloxazol-5-yl)methanone], the AC50 (24 hrs compound incubation) is greater than 5000 nM.
With `O=C(N1CCc2[nH]cnc2[C@@H]1c1nc2ccccc2s1)C(F)(F)C1CC1` [Example 1254, (R)-1-(4-(benzo[d]thiazol-2-yl)-6,7-dihydro-1H-imidazo[4,5-c]pyridin-5(4H)-yl)-2-cyclopropyl-2,2-difluoroethanone], under “24 hrs compound incubation”, the AC50 is greater than 5000 nM.
In the case of `O=C(c1oc(-c2ccccn2)nc1C(F)(F)F)N1CCCc2[nH]cnc2[C@H]1c1nc2ccccc2s1` [Example 2121, (S)-(4-(benzo[d]thiazol-2-yl)-7,8-dihydroimidazo[4,5-c]azepin-5(1H,4H,6H)-yl)(2-(pyridin-2-yl)-4-(trifluoromethyl)oxazol-5-yl)methanone], the AC50 (24 hrs compound incubation) was in the range of 500 to 1000 nM.
Take `O=C(c1oc(-c2ccccn2)nc1C1CC1)N1CCc2[nH]cnc2[C@H]1c1nc2cccc(F)c2s1` [Example 1558]: the AC50 (24 hrs compound incubation) is less than 500 nM.
Consider `O=C(Cc1cnn2ccccc12)N1CCc2[nH]cnc2C1c1nc2ccccc2s1` (stereo not shown), for which, under “24 hrs with compound”, the AC50 fell in the range of 1000 to 5000 nM.
In the case of `O=C(c1cnn2c(Br)cccc12)N1CCc2[nH]cnc2C1c1nc2ccc(Cl)cc2[nH]1` (stereo not shown), the AC50 (24 hrs with compound) lay within 1000 to 5000 nM.
Consider `CC(C)(F)c1nnc(C(=O)N2CCc3[nH]cnc3[C@H]2c2nc3ccccc3s2)o1` [Example 1834], for which the AC50 (24 hrs compound incubation) was less than 500 nM.
In the case of `CNCc1ccc2c(C(=O)N3CCc4[nH]cnc4C3c3nc4ccccc4s3)cnn2c1` (stereo not shown), under “24 hrs with compound”, the AC50 was greater than 5000 nM.
